Data taken from PubChem BioAssay AID1963961 (Molecular Pharmacology Branch, DTP, NCI, 2024).
“And” between values parts separate entries of the source, which are not always exact repeats. Equal values may be shown once.

Test system: K98450-129-R-PDC multicell spheroids, viability
Assay: Anticancer human tumor K98450-129-R-PDC patient-derived colon adenocarcinoma cell line growth inhibition [PI3K]
Settings: for viability, T/C: stronger effect = lower value
Summary of the method: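 We assembled tumor spheroids that included a stromal compartment of HUVEC and MSCs, then exposed them to targeted agents alone and together with PI3K pathway inhibitors. Concentration series descended by half-log from clinically achievable Cmax levels. Viability served as the endpoint.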

[1] = curve of first compound, second compound 0.0316 µM
[2] = curve of first compound, second compound 0.1 µM
[3] = curve of first compound, second compound 0.316 µM
[4] = curve of first compound, second compound 1 µM
[5] = curve of first compound, second compound 3.16 µM
[6] = curve of first compound, second compound 10 µM
[7] = second compound 0.0316 µM, first compound 0.0316 µM
[8] = second compound 0.0316 µM, first compound 0.1 µM
[9] = second compound 0.1 µM, first compound 0.0316 µM
[10] = second compound 0.1 µM, first compound 0.1 µM
[11] = second compound 0.316 µM, first compound 0.0316 µM
[12] = second compound 0.316 µM, first compound 0.1 µM
[13] = second compound 1 µM, first compound 0.0316 µM
[14] = second compound 1 µM, first compound 0.1 µM
[15] = second compound 3.16 µM, first compound 0.0316 µM
[16] = second compound 3.16 µM, first compound 0.1 µM
[17] = second compound 10 µM, first compound 0.0316 µM
[18] = second compound 10 µM, first compound 0.1 µM
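Note: spheroids exposed to agents for seven days before read-out.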

CC(=O)c1c(C)c2cnc(Nc3ccc(N4CCNCC4)cn3)nc2n(C2CCCC2)c1=O + CC(Nc1ncnc2nc[nH]c12)c1cc2cccc(Cl)c2c(=O)n1-c1ccccc1 was tested, and the IC50 [1] was greater than 0.1 µM, the IC50 [2] was greater than 0.1 µM and the IC50 [3] was greater than 0.1 µM. The IC50 [4] was greater than 0.1 µM, the IC50 [5] was greater than 0.1 µM and the IC50 [6] was greater than 0.1 µM. The viability, T/C (second compound 0.0316 µM, first compound 0.000316 µM) was 105%, the viability, T/C (second compound 0.0316 µM, first compound 0.001 µM) was 100% and the viability, T/C (second compound 0.0316 µM, first compound 0.00316 µM) was 110%. For the same molecule, the viability, T/C (second compound 0.0316 µM, first compound 0.01 µM) was 99%, the viability, T/C [7] was 100% and the viability, T/C [8] was 86.2%. It also gave a viability, T/C (second compound 0.1 µM, first compound 0.000316 µM) of 109%, a viability, T/C (second compound 0.1 µM, first compound 0.001 µM) of 94.8% and a viability, T/C (second compound 0.1 µM, first compound 0.00316 µM) of 94.2%. The viability, T/C (second compound 0.1 µM, first compound 0.01 µM) was 96.1%, the viability, T/C [9] was 93.1% and the viability, T/C [10] was 99.3%. It also gave a viability, T/C (second compound 0.316 µM, first compound 0.000316 µM) of 107%, a viability, T/C (second compound 0.316 µM, first compound 0.001 µM) of 106% and a viability, T/C (second compound 0.316 µM, first compound 0.00316 µM) of 93.7%. For the same molecule, the viability, T/C (second compound 0.316 µM, first compound 0.01 µM) was 94.8%, the viability, T/C [11] was 101% and the viability, T/C [12] was 81.6%. For the same molecule, the viability, T/C (second compound 1 µM, first compound 0.000316 µM) was 102%, the viability, T/C (second compound 1 µM, first compound 0.001 µM) was 92.3% and the viability, T/C (second compound 1 µM, first compound 0.00316 µM) was 90.2%. It also gave a viability, T/C (second compound 1 µM, first compound 0.01 µM) of 101%, a viability, T/C [13] of 101% and a viability, T/C [14] of 85.8%. For the same molecule, the viability, T/C (second compound 3.16 µM, first compound 0.000316 µM) was 105%, the viability, T/C (second compound 3.16 µM, first compound 0.001 µM) was 97.2% and the viability, T/C (second compound 3.16 µM, first compound 0.00316 µM) was 87.6%. For the same molecule, the viability, T/C (second compound 3.16 µM, first compound 0.01 µM) was 94.5%, the viability, T/C [15] was 96.9% and the viability, T/C [16] was 89.9%. It also gave a viability, T/C (second compound 10 µM, first compound 0.000316 µM) of 92.4%, a viability, T/C (second compound 10 µM, first compound 0.001 µM) of 96.7% and a viability, T/C (second compound 10 µM, first compound 0.00316 µM) of 74.5%. The viability, T/C (second compound 10 µM, first compound 0.01 µM) was 82.2%, the viability, T/C [17] was 103% and the viability, T/C [18] was 72.2%.

Molecule CNC(=O)c1ccc(N2C(=S)N(c3ccc(C#N)c(C(F)(F)F)c3)C(=O)C2(C)C)cc1F + CC(Nc1ncnc2nc[nH]c12)c1cc2cccc(Cl)c2c(=O)n1-c1ccccc1 has an IC50 [1] greater than 10 µM, an IC50 [2] greater than 10 µM and an IC50 [3] greater than 10 µM. The IC50 [4] was greater than 10 µM, the IC50 [5] was greater than 10 µM and the IC50 [6] was greater than 10 µM. The viability, T/C [7] was 109%, the viability, T/C [8] was 100% and the viability, T/C (second compound 0.0316 µM, first compound 0.316 µM) was 104%. The viability, T/C (second compound 0.0316 µM, first compound 1 µM) was 83.1%, the viability, T/C (second compound 0.0316 µM, first compound 3.16 µM) was 104% and the viability, T/C (second compound 0.0316 µM, first compound 10 µM) was 88.9%. The viability, T/C [9] was 116%, the viability, T/C [10] was 94% and the viability, T/C (second compound 0.1 µM, first compound 0.316 µM) was 106%. The viability, T/C (second compound 0.1 µM, first compound 1 µM) was 108%, the viability, T/C (second compound 0.1 µM, first compound 3.16 µM) was 88.8% and the viability, T/C (second compound 0.1 µM, first compound 10 µM) was 101%. For the same molecule, the viability, T/C [11] was 104%, the viability, T/C [12] was 99.3% and the viability, T/C (second compound 0.316 µM, first compound 0.316 µM) was 97.2%. For the same molecule, the viability, T/C (second compound 0.316 µM, first compound 1 µM) was 92.3%, the viability, T/C (second compound 0.316 µM, first compound 3.16 µM) was 112% and the viability, T/C (second compound 0.316 µM, first compound 10 µM) was 109%. For the same molecule, the viability, T/C [13] was 92.8%, the viability, T/C [14] was 90.7% and the viability, T/C (second compound 1 µM, first compound 0.316 µM) was 95.5%. The viability, T/C (second compound 1 µM, first compound 1 µM) was 102%, the viability, T/C (second compound 1 µM, first compound 3.16 µM) was 99.8% and the viability, T/C (second compound 1 µM, first compound 10 µM) was 97.1%. The viability, T/C [15] was 83.1%, the viability, T/C [16] was 95.4% and the viability, T/C (second compound 3.16 µM, first compound 0.316 µM) was 82%. The viability, T/C (second compound 3.16 µM, first compound 1 µM) was 83.1%, the viability, T/C (second compound 3.16 µM, first compound 3.16 µM) was 87.6% and the viability, T/C (second compound 3.16 µM, first compound 10 µM) was 96.6%. It also gave a viability, T/C [17] of 76.8%, a viability, T/C [18] of 93.4% and a viability, T/C (second compound 10 µM, first compound 0.316 µM) of 83%. It also gave a viability, T/C (second compound 10 µM, first compound 1 µM) of 96.1%, a viability, T/C (second compound 10 µM, first compound 3.16 µM) of 109% and a viability, T/C (second compound 10 µM, first compound 10 µM) of 88%.

With Cn1nccc1Nc1nccc(-c2ccn(C(CO)c3ccc(Cl)c(F)c3)c(=O)c2)n1 (stereo not drawn) the viability, T/C (compound 0.0316 µM) was 105% (2×) and 95% and 106%, the viability, T/C (compound 0.1 µM) was 101% (2×) and 104% and 81.8% and the viability, T/C (compound 0.316 µM) was 103% [middle of 4 runs]. The viability, T/C (compound 1 µM) was 101% [middle of 4 runs], the viability, T/C (compound 3.16 µM) was 100% [middle of 4 runs] and the viability, T/C (compound 10 µM) was 94% [middle of 4 runs]. It also gave an IC50 (curve of compound) greater than 10 µM.

In the case of CC(=O)c1c(C)c2cnc(Nc3ccc(N4CCNCC4)cn3)nc2n(C2CCCC2)c1=O, the viability, T/C (compound 0.000316 µM) is reported as 105% [middle of 4 runs], the viability, T/C (compound 0.001 µM) is reported as 106% [middle of 4 runs] and the viability, T/C (compound 0.00316 µM) is reported as 104% [middle of 4 runs]. The viability, T/C (compound 0.01 µM) was 104% (2×) and 102% and 99.6%, the viability, T/C (compound 0.0316 µM) was 101% [middle of 4 runs] and the viability, T/C (compound 0.1 µM) was 95.5% [middle of 4 runs]. The IC50 (curve of compound) was greater than 0.1 µM.
